Experimental data from PubChem BioAssay AID2060486 (Molecular Pharmacology Branch, DTP, NCI, 2025).

Tested on: IGROV1 complex spheroids (HUVEC, MSC), viability % test/control
Assay: Anticancer human tumor IGROV1 cell line growth inhibition [GQUAD];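 also: spheroids exposed to compounds for 7 days before readout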;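 as to viability, T/C: 100% = DMSO vehicle control viability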
Settings: for IC50: curve of first compound; for viability, T/C: stronger effect = lower value; active = viability on the fitted dose curve at most 10% of control; inactive = the rest
Outline: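 Viability of tumor cells grown as complex spheroids with endothelial and stromal cells, exposed to drug combinations. Top concentration at or near clinical Cmax (else 10 microM), diluted in half-log increments.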

CC1COCCN1c1cc(-c2ccnn2C)c2ccnc(-c3ccn[nH]3)c2n1 (configuration not stated) + Cc1[nH]c2ccc(F)cc2c1-c1nc2c3cccnc3c3ncccc3c2[nH]1
63.5 nM: IC50 (second compound 0.0316 µM)
active: viability, T/C (second compound 0.0316 µM, first compound 1 µM) 5.35% | viability, T/C (second compound 0.0316 µM, first compound 3.16 µM) 5.85% | viability, T/C (second compound 0.0316 µM, first compound 10 µM) 3.72% | viability, T/C (second compound 0.1 µM, first compound 1 µM) 6.46% | viability, T/C (second compound 0.1 µM, first compound 3.16 µM) 4.05% | viability, T/C (second compound 0.1 µM, first compound 10 µM) 3.93% | viability, T/C (second compound 0.316 µM, first compound 0.316 µM) 5.71% | viability, T/C (second compound 0.316 µM, first compound 1 µM) 5.18% | viability, T/C (second compound 0.316 µM, first compound 3.16 µM) 4.33% | viability, T/C (second compound 0.316 µM, first compound 10 µM) 3.75% | viability, T/C (second compound 1 µM, first compound 0.0316 µM) 3.38% | viability, T/C (second compound 1 µM, first compound 0.1 µM) 3.29% | viability, T/C (second compound 1 µM, first compound 0.316 µM) 4.19% | viability, T/C (second compound 1 µM, first compound 1 µM) 4.05% | viability, T/C (second compound 1 µM, first compound 3.16 µM) 4.41% | viability, T/C (second compound 1 µM, first compound 10 µM) 2.28% | viability, T/C (second compound 3.16 µM, first compound 0.0316 µM) 3.79% | viability, T/C (second compound 3.16 µM, first compound 0.1 µM) 4.74% | viability, T/C (second compound 3.16 µM, first compound 0.316 µM) 3.3% | viability, T/C (second compound 3.16 µM, first compound 1 µM) 2.73% | viability, T/C (second compound 3.16 µM, first compound 3.16 µM) 3.37% | viability, T/C (second compound 3.16 µM, first compound 10 µM) 1.52% | viability, T/C (second compound 10 µM, first compound 0.0316 µM) 4.11% | viability, T/C (second compound 10 µM, first compound 0.1 µM) 3.77% | viability, T/C (second compound 10 µM, first compound 0.316 µM) 3.3% | viability, T/C (second compound 10 µM, first compound 1 µM) 3.47% | viability, T/C (second compound 10 µM, first compound 3.16 µM) 2.98% | viability, T/C (second compound 10 µM, first compound 10 µM) 2.3%
< 31.6 nM: IC50 (second compound 0.316 µM) | IC50 (second compound 1 µM) | IC50 (second compound 3.16 µM) | IC50 (second compound 10 µM)
inactive: viability, T/C (second compound 0.0316 µM, first compound 0.0316 µM) 81.2% | viability, T/C (second compound 0.0316 µM, first compound 0.1 µM) 29.2% | viability, T/C (second compound 0.0316 µM, first compound 0.316 µM) 13.1% | viability, T/C (second compound 0.1 µM, first compound 0.0316 µM) 66.3% | viability, T/C (second compound 0.1 µM, first compound 0.1 µM) 29.4% | viability, T/C (second compound 0.1 µM, first compound 0.316 µM) 12.7% | viability, T/C (second compound 0.316 µM, first compound 0.0316 µM) 48.1% | viability, T/C (second compound 0.316 µM, first compound 0.1 µM) 14.3%
52.6 nM: IC50 (second compound 0.1 µM)
